Measured values as given in patent US9776987B2, “Amide derivatives for GPR119 agonist” (CHONG KUN DANG PHARMACEUTICAL CORP., priority 2013, dated 2017).
pEC50: −log10 of the molar value.

Target: T1, human GPR119 receptor (Homo sapiens, UniProt Q8TDV5)
T1 construct: host or cells: GeneBLAzer T-Rex GPR 119 CHO-K1 DA cells (CHO-K1)
T1 sequence (Q8TDV5 1-335): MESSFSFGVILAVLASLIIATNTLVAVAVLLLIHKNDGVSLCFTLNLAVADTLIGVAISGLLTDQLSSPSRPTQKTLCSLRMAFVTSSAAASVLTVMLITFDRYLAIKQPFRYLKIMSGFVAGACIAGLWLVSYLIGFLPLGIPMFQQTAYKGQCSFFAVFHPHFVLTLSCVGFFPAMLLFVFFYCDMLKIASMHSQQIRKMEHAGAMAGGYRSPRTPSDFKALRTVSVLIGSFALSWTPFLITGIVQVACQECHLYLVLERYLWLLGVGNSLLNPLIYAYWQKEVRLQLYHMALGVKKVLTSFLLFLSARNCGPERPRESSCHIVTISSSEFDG
Assay: Activity test for human GPR119 receptor (GeneBLAzer T-Rex GPR 119 CHO-K1 DA cells)
Type: cell-based
Conditions: for pEC50: human GPR119 receptor expressing CHO-K1 cells, 5 hours treatment, read-out: hGPR119 EC50; for activity for human GPR119 receptor (in words): judgement on the EC50 values of Table 11
Procedure: 1. Human GPR119 Receptor Cell
As a human GPR119 receptor expression cell for this test, the cell line “GeneBLAzer™ T-Rex GPR 119 CHO-K1 DA cells” that is commercially available from Invitrogen, was used. The cell was incubated in the DMEM media containing 1% dialyzed fetal bovine serum etc. The cell incubator was kept at constant temperature and constant humidity of 37° C., 5% CO2.
2. Activity Test for Human GPR119 Receptor
The human GPR119 receptor expressing cell was used to this test. Each of test compounds was added to be final concentrations of 0.1, 1, 10 μM in 96 well and tested in duplicate. A fixed amount of cell was added to each well of 96 well separately, and then treated with the test compound for 5 hours. After treatment of color development agent for 2 hours, the fluorescence value was determined with plate reader. To the luminous wavelength of control well, which was not treated with the sample, but in which only a vehicle […] was contained, the ratio of the luminous wavelength of test well, which was treated with the sample, was calculated, and then converted to obtain EC50 value.
3. Statistical Processing
All the results were expressed as mean±SD, and each test groups and the control group were compared using student's t-test to adjudge the effects of each test groups.

Row | SMILES | pEC50 | activity for human GPR119 receptor (in words)
1 | CC(C)(CN1CCC(COc2ccc(-c3ccc(C(=O)N4C[C@H](O)C[C@@]4(C)C(N)=O)c(F)c3)cn2)CC1)C(F)(F)F [Compound 1295, (2S,4R)-1-(2-fluoro-4-(6-((1-(3,3,3-trifluoro-2,2-dimethylpropyl)piperidin-4-yl)methoxy)pyridin-3-yl)benzoyl)-4-hydroxy-2-methylpyrrolidin-2-carboxamide] | 7.74 | excellent activity
2 | NC(=O)[C@@H]1C[C@@H](O)CN1C(=O)c1ccc(-c2ccc(OCC3CCN(CC4(C(F)(F)F)CCC4)CC3)cn2)cc1F [Compound 1280, (2S,4R)-1-(2-fluoro-4-(5-((1-((1-(trifluoromethyl)cyclobutyl)methyl)piperidin-4-yl)methoxy)pyridin-2-yl)benzoyl)-4-hydroxypyrrolidin-2-carboxamide] | 7.42 | excellent activity
3 | NC(=O)[C@@H]1[C@@H](O)CCN1C(=O)c1ccc(-c2ccc(OCC3CCN(CC4(C(F)(F)F)CCC4)CC3)cc2)c(F)c1 [Compound 1220, (2S,3S)-1-(2-fluoro-4′-((1-((1-(trifluoromethyl)cyclobutyl)methyl)piperidin-4-yl)methoxy)biphenylcarbonyl)-3-hydroxypyrrolidin-2-carboxamide] | 10.00 | –
4 | CC(C)(F)CN1CCC(COc2cnc(-c3ccc(C(=O)N4CCC[C@@]4(C)C(N)=O)c(F)c3)nc2)CC1 [Compound 1206, (S)-1-(2-fluoro-4-(5-((1-(2-fluoro-2-methylpropyl)piperidin-4-yl)methoxy)pyrimidin-2-yl)benzoyl)-2-methylpyrrolidin-2-carboxamide] | 8.05 | –
5 | C[C@@]1(C(N)=O)C[C@@H](O)CN1C(=O)c1ccc(-c2ccc(OCC3CCN(CC4(C(F)(F)F)CCC4)CC3)cc2)c(F)c1 [Compound 1258, (2S,4R)-1-(2-fluoro-4′-((1-((1-(trifluoromethyl)cyclobutyl)methyl)piperidin-4-yl)methoxy)biphenylcarbonyl)-4-hydroxy-2-methylpyrrolidin-2-carboxamide] | 9.00 | –
6 | NC(=O)C1CC(O)CCN1C(=O)c1ccc(-c2cnc(OCC3CCN(CC4(C(F)(F)F)CCC4)CC3)cn2)cc1F (stereo not drawn) [Compound 1262, 1-(2-fluoro-4-(5-((1-((1-(trifluoromethyl)cyclobutyl)methyl)piperidin-4-yl)methoxy)pyrazin-2-yl)benzoyl)-4-hydroxypiperidin-2-carboxamide] | 9.10 | excellent activity
7 | NC(=O)[C@@H]1C[C@H](F)CN1C(=O)c1ccc(-c2cnc(OCC3CCN(CC4(C(F)(F)F)CCC4)CC3)cn2)cc1 [Compound 1209, (2S,4S)-4-fluoro-1-(4-(5-((1-((1-(trifluoromethyl)cyclobutyl)methyl)piperidin-4-yl)methoxy)pyrazin-2-yl)benzoyl)pyrrolidin-2-carboxamide] | 10.05 | –
8 | CC(C)(F)CN1CCC(COc2ccc(-c3ccc(C(=O)N4C[C@H](O)C[C@@]4(C)C(N)=O)c(F)c3)cc2C#N)CC1 [Compound 1276, (2S,4R)-1-(3′-cyano-3-fluoro-4′-((1-(2-fluoro-2-methylpropyl)piperidin-4-yl)methoxy)biphenylcarbonyl)-4-hydroxy-2-methylpyrrolidin-2-carboxamide] | 7.62 | –
9 | CCC(F)(F)CN1CCC(COc2ccc(-c3ccc(C(=O)N4CCC[C@H]4C(N)=O)c(F)c3)cn2)CC1 [Compound 1238, (S)-1-(4-(6-((1-(2,2-difluorobutyl)piperidin-4-yl)methoxy)pyridin-3-yl)-2-fluorobenzoyl)pyrrolidin-2-carboxamide] | 9.05 | –
10 | NC(=O)[C@@H]1C[C@@H](O)CN1C(=O)c1ccc(-c2ccc(OCC3CCN(CC4(C(F)(F)F)CCC4)CC3)cc2)c(F)c1 [Compound 1255] | 8.70 | excellent activity
11 | NC(=O)[C@@H]1[C@@H](O)CCN1C(=O)c1ccc(-c2cnc(OCC3CCN(CC4(C(F)(F)F)CCC4)CC3)cn2)cc1F [Compound 1249, (2S,3S)-1-(2-fluoro-4-(5-((1-((1-(trifluoromethyl)cyclobutyl)methyl)piperidin-4-yl)methoxy)pyrazin-2-yl)benzoyl)-3-hydroxypyrrolidin-2-carboxamide] | 10.00 | excellent activity
12 | CC(C)(F)CN1CCC(COc2ccc(-c3ccc(C(=O)N4CCC[C@@]4(C)C(N)=O)c(F)c3)cc2C#N)CC1 [Compound 1259, (S)-1-(3′-cyano-3-fluoro-4′-((1-(2-fluoro-2-methylpropyl)piperidin-4-yl)methoxy)biphenylcarbonyl)-2-methylpyrrolidin-2-carboxamide] | 8.30 | –
13 | CCC(F)(CC)CN1CCC(COc2ccc(-c3ccc(C(=O)N4CCC[C@@]4(C)C(N)=O)c(F)c3)nc2)CC1 [Compound 1299, (S)-1-(4-(5-((1-(2-ethyl-2-fluorobutyl)piperidin-4-yl)methoxy)pyridin-2-yl)-2-fluorobenzoyl)-2-methylpyrrolidin-2-carboxamide] | 8.05 | excellent activity
14 | CCC(F)(CC)CN1CCC(COc2ccc(-c3ccc(C(=O)N4CC[C@H](O)[C@H]4C(N)=O)c(F)c3)cc2F)CC1 [Compound 1244, (2S,3S)-1-(4′-((1-(2-ethyl-2-fluorobutyl)piperidin-4-yl)methoxy)-3,3′-difluorobiphenylcarbonyl)-3-hydroxypyrrolidin-2-carboxamide] | 9.52 | –
15 | CCC(F)(CC)CN1CCC(COc2ccc(-c3ccc(C(=O)N4CC[C@H](O)[C@H]4C(N)=O)cc3)c(F)c2)CC1 [Compound 1245, (2S,3S)-1-(4′-((1-(2-ethyl-2-fluorobutyl)piperidin-4-yl)methoxy)-2′-fluorobiphenylcarbonyl)-3-hydroxypyrrolidin-2-carboxamide] | 9.00 | –
16 | CCC(F)(CC)CN1CCC(COc2ccc(-c3ccc(C(=O)N4C[C@H](O)C[C@@]4(C)C(N)=O)cc3)nc2)CC1 [Compound 1309, (2S,4R)-1-(4-(5-((1-(2-ethyl-2-fluorobutyl)piperidin-4-yl)methoxy)pyridin-2-yl)benzoyl)-4-hydroxy-2-methylpyrrolidin-2-carboxamide] | 7.33 | –
17 | NC(=O)[C@@H]1C[C@@H](O)CN1C(=O)c1ccc(-c2ccc(OCC3CCN(CC(F)(F)C(F)(F)F)CC3)cn2)cc1F [Compound 1265, (2S,4R)-1-(2-fluoro-4-(5-((1-(2,2,3,3,3-pentafluoropropyl)piperidin-4-yl)methoxy)pyridin-2-yl)benzoyl)-4-hydroxypyrrolidin-2-carboxamide] | 10.30 | excellent activity
18 | CCC(F)(CC)CN1CCC(COc2ccc(-c3ccc(C(=O)N4C[C@@H](F)C[C@H]4C(N)=O)c(F)c3)cc2)CC1 [Compound 1211, (2S,4S)-1-(4′-((1-(2-ethyl-2-fluorobutyl)piperidin-4-yl)methoxy)-3-fluorobiphenylcarbonyl)-4-fluoropyrrolidin-2-carboxamide] | 10.10 | –
19 | NC(=O)[C@@H]1[C@@H](O)CCN1C(=O)c1ccc(-c2cnc(OCC3CCN(CC4(C(F)(F)F)CCC4)CC3)cn2)c(F)c1 [Compound 1253, (2S,3S)-1-(3-fluoro-4-(5-((1-((1-(trifluoromethyl)cyclobutyl)methyl)piperidin-4-yl)methoxy)pyrazin-2-yl)benzoyl)-3-hydroxypyrrolidin-2-carboxamide] | 9.70 | excellent activity
